Experiment: Human HepG2 cell viability assay in 384 well format
Format: toxicity, cell-based
Set-up: dose 125 nL, time 70.5 hour; cytotoxicity at 70.5 h: concentration not given beside the values
Conditions: HepG2 cells, read-out: Inhibition

Row | SMILES | cytotoxicity at 70.5 h [%]
1 | Cn1cnc2c1C(COCc1ccccc1)N(Cc1ccccn1)CC2 (centres undefined) | -0.00457
2 | Cn1cc(C2CC(=O)NC23CCN(C(=O)C2CC=CC2)CC3)cn1 (centres undefined) | 18.7
3 | O=C(NC1CCOC1)c1cccc(S(=O)(=O)NCCCc2ncc[nH]2)c1 (centres undefined) | -13.4
4 | CC1c2ncc(COc3cccnc3)n2CCN1C(=O)C1=CCCCC1 (centres undefined) | -14.2
5 | Cn1cccc1C(O)CNC(=O)COc1ccccc1F (centres undefined) | -8.88
6 | OCc1csc(N2CCCN(Cc3ccc(F)cc3)CC2)n1 | 2.55
7 | Fc1ccc2c(c1)C1(CCNCC1)CC2NC1CC1 (centres undefined) | 14.1
8 | CNc1nc2c(c(C(=O)N3CCCC3)n1)CN(Cc1nccn1C)CC2 | -10.9
9 | COCC(=O)N1CCN(C(=O)NC(C)C)CC2(CC(=O)N(C)C2)C1 (centres undefined) | 9.18
10 | CCN1CCC2(CC1)CC(NCc1cccs1)c1ccccc1O2 (centres undefined) | -5.71
11 | FC(F)(F)C1CN(Cc2cnc3c(-c4ccccc4)cnn3c2)CCO1 (centres undefined) | -7.58
12 | Cc1cc(C(=O)N2CC(=O)Nc3cnccc32)c(Cl)cc1F | -1.87
13 | CC(CNC(=O)OC(C)(C)C)N(C)C(=O)COc1ccccc1C#N (centres undefined) | -12.1
14 | CNC(=O)CN1CC[C@H]2CN(C(=O)c3ccc(C)nc3)C[C@H]2C1 | -1.44
15 | O=C(c1ccc2c(c1)COC2)N1CCC(Nc2ccccc2)CC1 | 1.02
16 | COC(=O)N1CC(C)=C(C)CN1C(=O)Nc1ccc(Cl)cc1 | 3.18
17 | Cc1csc(C(=O)N2CC[C@H](Oc3cccnc3C)[C@@H](O)CC2)c1 | 14
18 | NC(=O)CN1CCOCC(Cc2ccccc2)C1 (centres undefined) | -11.7
19 | CCCNC(=O)c1cc2c(c3ccccc3n2C)n1C(=O)N(C)C | -5.66
20 | Cc1noc(C)c1CN(C)Cc1nc(N)c2ccccc2n1 | 13.8
21 | Cc1cccc2[nH]cc(CC(=O)N3CCC(Nc4cccnn4)CC3)c12 | 0.978
22 | CN(C)C(=O)N1CCc2c(COCC3CC3)cncc2C1 | -4.34
23 | C[C@H]1C[C@@H]2CCN(C(=O)c3ccncn3)C[C@H]2O1 | -0.838

Row | SMILES | cytotoxicity at 70.5 h [%]
24 | CCNC(=O)Cc1ccc(-c2cccc3c2CCNC3)cc1 | -17.3
25 | CC(C)NC(=O)c1nnc2ccc(N3CCOCC3)cc2n1 | -5.91
26 | COCCN(C)C[C@@H]1CN(C(=O)c2ccc3c(c2)OCO3)C[C@@H]1CO | -12.8
27 | Cc1cc(CNc2ccccc2Cl)no1 | -13.4
28 | Nc1nccc(-c2c[nH]nc2C2CCCCC2)n1 | 47.1
29 | O=S(=O)(NCCCn1cncn1)c1ccc2c(c1)OCCO2 | -3.62
30 | CC(=O)N1CCC(Oc2ccc(C#N)cc2)CC1 | 9.28
31 | CC(=O)NCC(=O)N1Cc2nccn2CC(CN2CCCC2=O)C1 (centres undefined) | -7.77
32 | O=C1[C@H]2CN(C3CCOCC3)C[C@H]2CN1Cc1ccncc1 | -8.99
33 | Cc1nc(CN(C)C2CCN(Cc3nc4ccccc4n3C)C2)no1 (centres undefined) | -2.1
34 | O=C(C1CCOCC1)N1CCC2(CCN(Cc3nccs3)CC2)CC1 | 9.62
35 | CN(CC(=O)NCC(F)(F)F)Cc1nc2c(s1)CCCC2 | -9.23
36 | CCN(Cc1ccncc1)c1nc(C)nc2oc(C)nc12 | -5.52
37 | CC(C(=O)N1CCOCC1)S(=O)(=O)Cc1noc(C(C)(C)C)n1 (centres undefined) | 7.07
38 | CCCc1nc(CNc2nc(C)nc3oc(C)nc23)cs1 | -6.15
39 | COc1ccc(C[C@H]2CN(Cc3ccoc3)CC[C@@H]2OC)cc1 | -2.46
40 | CC(C)c1cc(CN2CCC(CC(=O)O)CC2)no1 | -2.18
41 | O=C(O)c1ccc(F)c(S(=O)(=O)Nc2c(F)cccc2-n2cccn2)c1 | -5.11
42 | CC(C)C1SCC(=O)Nc2c1cnn2-c1ccc(Cl)cc1F (centres undefined) | 0.678
43 | c1cncc(OC[C@]23COC[C@H]2CN(Cc2nccs2)C3)c1 | -120
44 | Cn1c(=O)oc2cc(S(=O)(=O)N3CCCCC3)c(Cl)cc21 | 47.9
45 | Cn1ncc(N2CCC(CNC3CC(c4ccccc4)C3)CC2)cc1=O (centres undefined) | -5.35
46 | Cc1cnn(CCC(=O)N2C[C@H]3CC[C@@H]2CN(CC(=O)N(C)C)C3)c1 | -3.83

Row | SMILES | cytotoxicity at 70.5 h [%]
47 | CN(Cc1noc(C2CC2)n1)C1CCN(Cc2nnc(C3CC3)o2)C1 (centres undefined) | -3.86
48 | CCC(=O)c1ccc(OCC(=O)NC(C)c2ncnn2CC)cc1 (centres undefined) | -17.2
49 | Cc1cc(C)c2cc(C(=O)N3CCNC(=O)C3)[nH]c2c1 | -8
50 | Cc1ncc2c(n1)CN(C(C(N)=O)c1ccccc1)CC2 (centres undefined) | -7.87
51 | O=C(NC1CC1)C1=CC2(CCN(CC3CC3)CC2)c2ccccc21 | -4.67
52 | COc1ccc(CN(C)Cc2c(C)noc2C)c(Cl)c1OC | -8.81
53 | O=C(c1ccc[nH]1)N1CCCC2(CCN(c3ccsc3)C2=O)C1 (centres undefined) | -11.6
54 | CCc1ncc2c(n1)CN(Cc1nnc(C)o1)CC2 | -8.24
55 | Cc1cc(CN2CCN(C(=O)NCc3cccs3)CC2)no1 | -4.63
56 | Cn1ncc(N2CCOC(CCNC(=O)NC(C)(C)C)C2)cc1=O (centres undefined) | 19.2
57 | Cc1ccc(CNc2cc(C(=O)N3CCOCC3)nc(C)n2)cc1 | -9.84
58 | CCC1=NN2C(=N)/C(=C\c3cccn3-c3ccc(Br)cc3)C(=O)N=C2S1 | 3.19
59 | CC(NC(=O)N1CCCN(CC(F)F)CC1)c1ccco1 (centres undefined) | -8.42
60 | CCN1CCN(C)C(=O)C12CCN(Cc1cccc(C)c1)CC2 | 2.19
61 | Cc1nccn1CCCn1cncc1-c1ccc2c(c1)CCCN2C | -5.52
62 | O=C(NCC1(c2ccc(F)cc2)CCC1)N1CCC2(CCOCC2)C1 | 7.66
63 | CCn1ccc(NC(=O)CN2C(=O)CC(C)(C)c3ccccc32)n1 | -8.59
64 | Cc1nc(C(=O)N2CC[C@@]3(C[C@@H](NS(C)(=O)=O)CCO3)C2)cs1 | -5.85
65 | CC(C)CC(CCO)CNC(=O)N1CCC1(C)C (centres undefined) | -1.15
66 | Cc1oc(-c2nc(C#N)c(N(C)C)o2)cc1S(=O)(=O)N1CCCC1 | -21.5
67 | O=C(Nc1ccc(-c2ccn[nH]2)cc1)C1CCCN(Cc2ccoc2)C1 (centres undefined) | 1.09
68 | CC(C)c1cc(C2CCCN2C(=O)CN2C(=O)CCNC2=O)no1 (centres undefined) | -5.21
69 | O=C(c1ccsc1)N1C[C@@H]2OCCN(CCN3CCCC3)[C@@H]2C1 | 16.6

Row | SMILES | cytotoxicity at 70.5 h [%]
70 | Cc1ccccc1CSc1nc(N)cc(N2CCCC(C(N)=O)C2)n1 (centres undefined) | -2.56
71 | CC(C)N(C)Cc1cncc2c1CCN(Cc1ccoc1)C2 | -1.23
72 | COc1ccc(C)cc1NC(=O)c1coc(C)n1 | -5.37
73 | Cc1cnc(CN(C)C2CCN(Cc3nnc(C4CC4)o3)C2)o1 (centres undefined) | -4.32
74 | O=C(CC1CCCC1)N1CCC2(CCN2Cc2ccc(F)cc2)C1 (centres undefined) | 1.62
75 | Cc1nn(C)cc1C(=O)N1CCC(C(=O)c2nc3ccccc3s2)CC1 | -4.17
76 | CC(=O)N1CCCC(C(=O)Nc2ccccc2Cc2ccccc2)C1 (centres undefined) | 3.24
77 | COc1cc(N2C[C@@H]3COC[C@]3(COCc3ccncc3)C2)ncn1 | 8.15
78 | CN(CCOc1cccc(CNC(=O)C2CC2)c1)C1CCOCC1 | -8.5
79 | Cc1cc(CN2CCN(CC(O)c3ccc(Cl)cc3)CC2)no1 (centres undefined) | -11.9
80 | Cc1nc(C)n(CCCNc2ncnc3onc(C)c23)n1 | -3.47
81 | CN(C)c1cccc(C(=O)Nc2cn(C)c(=O)n(C)c2=O)c1 | -3.1
82 | Cc1nc(C2CCCN(C(=O)c3ccnc(N(C)C)c3)C2)no1 (centres undefined) | -3.61
83 | CO[C@H]1CCN(Cc2nccs2)C[C@@H]1Cc1ccccc1 | -0.233
84 | Cc1ccnc(C(NC(=O)c2ccc(O)nc2C)C2CC2)n1 (centres undefined) | 16.3
85 | Cn1cc(CCN2CCOC(CNc3cccnn3)C2)cn1 (centres undefined) | 21.9
86 | CC(OCC1CC1)C(=O)N1CCCN(c2cccnn2)CC1 (centres undefined) | -5.5
87 | COc1cccc(CNC(CN2CCN(C)CC2)c2ccccc2)c1 (centres undefined) | 5.01
88 | Fc1ccc(Br)c(NCc2nnsc2Cl)c1 | -2.39
89 | O=C(c1cnccn1)N1CC(S(=O)(=O)c2ccc(Cl)cc2)C1 | -4.33
90 | COCCN1CCc2cc(C(=O)O)c(NCC3CC3)nc2CC1 | 22.8
91 | Cc1cc(C)c2nc(CN3CCOC(CCO)C3)cc(O)c2c1 (centres undefined) | -4.44
92 | CCS(=O)(=O)CC(=O)NC1(c2ccc(Cl)c(Cl)c2)CC1 | -2.35

Row | SMILES | cytotoxicity at 70.5 h [%]
93 | Cc1cc(NC(=O)CNC(C)(C)c2ccc3c(c2)OCCO3)no1 | 2.35
94 | Cn1ccnc1CNC(=O)c1ccnc(C2CCNCC2)c1 | -6.57
95 | c1cnc(Nc2cncc(C3CCCN(c4cnccn4)C3)n2)nc1 (centres undefined) | -5.35
96 | CCCc1nc(C)cc(N2CCC3(CCC(=O)N(C4CC4)C3)CC2)n1 | -5.2
97 | COc1cccc(CN(C)Cc2cc(C#N)ccc2F)c1OC | -9.77
98 | COCCN1CCc2ccccc2NCCC1=O | -6.61
99 | Cn1cc(CNC2CCCOc3c(Cl)cccc32)cn1 (centres undefined) | 3.49
100 | Cc1ncsc1CCN(C)C(=O)CCc1nc2cccnc2n1C | -11.9
101 | Cc1noc(C)c1-c1cccc(C2CN(S(=O)(=O)N(C)C)CCO2)n1 (centres undefined) | -3.96
102 | O=C(Cc1cccc(F)c1F)NC1COc2ccccc2C1=O (centres undefined) | -10.6
103 | COCC(=O)N1CCN(C(=O)c2cccs2)[C@@H](C(=O)OC)C1 | -5
104 | Cc1c(C)n(Cc2ccncc2)c2nc3c(c(N)c12)CCCCCC3 | 30.2
105 | CC(C)(C)CC(=O)NCC(=O)Nc1ccn(Cc2cccnc2)n1 | 3.55
106 | Cc1nc(CN(C)C2CCN(Cc3ccc(C(N)=O)cc3)C2)no1 (centres undefined) | -11.2
107 | COc1ccc(-n2ccnc2-c2cnc(N(C)C)nc2)cc1OC | -6.47
108 | O=C(CSCc1ccncc1)NCc1csc(Br)c1 | -8.77
109 | Cc1ccc2nc(C(=O)N3CC(n4nc(C)cc4C)C3)cn2c1 | -9.46
110 | CC(C)c1cc(NCc2csc(N(C)C)n2)nc(N)n1 | 17.1
111 | Cc1cc(C)nc(NC(=O)NCCCSc2nncn2C)n1 | -8.45
112 | CC(OCC1CC1)C(=O)Nc1ccn(Cc2ccccc2)n1 (centres undefined) | -7.82
113 | COCCN1CC[C@H]2OCC[C@@H](C(=O)N3CCCO3)[C@H]2C1 | 47
114 | CCC(C)NC(=O)c1ccn(COc2ccccc2Cl)n1 (centres undefined) | -1.06

Source: ChEMBL document CHEMBL3507680, “University of Dundee, Gates Library screen for HepG2 cell viability”
